The values that follow come from patent US20230083015A1, “SMALL MOLECULE DEGRADERS OF STAT3” (THE REGENTS OF THE UNIVERSITY OF MICHIGAN, priority 2019, published 2023).

As a reminder, the DC50 is the midpoint of the concentration-degradation curve.

The target in one assay is T1, STAT1 (Homo sapiens, UniProt P42224).
T1 construct: In vitro cultured cells or xenograft tumors were lysed; endogenous in cells; host or cells: MOLM-16
T1 sequence (P42224 1-750): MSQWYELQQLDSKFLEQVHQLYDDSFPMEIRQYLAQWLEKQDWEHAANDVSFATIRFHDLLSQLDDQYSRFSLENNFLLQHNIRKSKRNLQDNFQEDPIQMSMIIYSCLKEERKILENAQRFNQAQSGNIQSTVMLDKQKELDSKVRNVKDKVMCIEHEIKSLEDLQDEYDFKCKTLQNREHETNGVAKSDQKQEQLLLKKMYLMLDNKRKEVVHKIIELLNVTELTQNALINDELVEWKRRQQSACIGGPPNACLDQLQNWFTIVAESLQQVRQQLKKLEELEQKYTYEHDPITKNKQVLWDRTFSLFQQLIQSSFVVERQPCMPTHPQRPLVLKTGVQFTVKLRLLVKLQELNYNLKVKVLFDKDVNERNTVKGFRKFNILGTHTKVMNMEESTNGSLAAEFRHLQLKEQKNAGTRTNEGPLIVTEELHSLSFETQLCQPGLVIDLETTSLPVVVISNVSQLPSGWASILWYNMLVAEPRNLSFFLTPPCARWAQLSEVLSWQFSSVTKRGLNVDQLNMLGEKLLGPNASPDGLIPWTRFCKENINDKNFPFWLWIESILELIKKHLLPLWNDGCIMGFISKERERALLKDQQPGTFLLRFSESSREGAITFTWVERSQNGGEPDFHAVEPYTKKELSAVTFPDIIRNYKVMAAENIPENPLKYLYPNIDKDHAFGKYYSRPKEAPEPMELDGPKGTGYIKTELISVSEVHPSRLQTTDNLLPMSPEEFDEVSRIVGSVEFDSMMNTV
As to the kind of experiment: Estimated DC50 for STAT1 degradation in MOLM-16 cells (immunoblotting). The format is cell-based. To be noted: MOLM-16, 4 h; read-out: Estimated DC50 STAT1. Here is the method:
(§1) FIG. 62 is a series of four images showing the fluorescent immunoblotting analysis of STAT1 and STAT3 protein in Molm-16 cells after treatment for 4 h with Cpd. Nos. 331, 296, 361, 362, 363, 364, 365, 366, and 367 at the concentrations indicated.
(§2) In vitro cultured cells or xenograft tumors were lysed 1× Cell Lysis Buffer (Cell Signaling Technology, #9803), resolved by SDS-PAGE NuPAGE gel (Thermo Fisher Scientific), and transferred to a PVDF membrane (Bio Rad). For chemiluminescence immunoblotting, membranes were blocked for 1 h using 5% Blotting-Grade Blocker (#1706404, Bio Rad) in 1× Tris-buffered saline with Tween 20 (TBST, Pierce). Antibodies used were: rabbit mAbs for STAT3 (Cell Signaling Technology, #4368, #12640) and p-STAT3 (Y705) (Cell Signaling Technology, #9245, #52075). HRP conjugated goat anti-rabbit IgG (H+L) (#A27036) secondary antibodies was from Thermo Fisher Scientific. GAPDH (Santa Cruz Technology, sc-47724HRP) and actin (Santa Cruz Technology, sc-8432HRP, sc-47778HRP) were loading controls. For fluorescent immunoblotting, membranes were blocked using Odyssey TBS Blocker Buffer (LI-COR). IRDye 680RD and 800CW Dye-labeled secondary antibodies (LI-COR) were used. The washed membranes were scanned using Odyssey CLx imager (LI-COR). The intensity of Western blot signaling was quantitated using the Odyssey software.
(§3) The estimated DC50 in MOLM-16 cells of representative Compounds of the Disclosure against STAT3 and STAT1 is provide in Table 5.

Another assay has as its target STAT3 (Homo sapiens, UniProt P40763). Kind of assay: Estimated DC50 for STAT3 degradation in MOLM-16 cells (immunoblotting). Format: cell-based. The arrangement: In vitro cultured cells or xenograft tumors were lysed; endogenous in cells; host or cells: MOLM-16. To be noted: MOLM-16, 4 h; read-out: Estimated DC50 STAT3. On the procedure:
as §1, §2, §3

Sequence of STAT3 (P40763 whole entry): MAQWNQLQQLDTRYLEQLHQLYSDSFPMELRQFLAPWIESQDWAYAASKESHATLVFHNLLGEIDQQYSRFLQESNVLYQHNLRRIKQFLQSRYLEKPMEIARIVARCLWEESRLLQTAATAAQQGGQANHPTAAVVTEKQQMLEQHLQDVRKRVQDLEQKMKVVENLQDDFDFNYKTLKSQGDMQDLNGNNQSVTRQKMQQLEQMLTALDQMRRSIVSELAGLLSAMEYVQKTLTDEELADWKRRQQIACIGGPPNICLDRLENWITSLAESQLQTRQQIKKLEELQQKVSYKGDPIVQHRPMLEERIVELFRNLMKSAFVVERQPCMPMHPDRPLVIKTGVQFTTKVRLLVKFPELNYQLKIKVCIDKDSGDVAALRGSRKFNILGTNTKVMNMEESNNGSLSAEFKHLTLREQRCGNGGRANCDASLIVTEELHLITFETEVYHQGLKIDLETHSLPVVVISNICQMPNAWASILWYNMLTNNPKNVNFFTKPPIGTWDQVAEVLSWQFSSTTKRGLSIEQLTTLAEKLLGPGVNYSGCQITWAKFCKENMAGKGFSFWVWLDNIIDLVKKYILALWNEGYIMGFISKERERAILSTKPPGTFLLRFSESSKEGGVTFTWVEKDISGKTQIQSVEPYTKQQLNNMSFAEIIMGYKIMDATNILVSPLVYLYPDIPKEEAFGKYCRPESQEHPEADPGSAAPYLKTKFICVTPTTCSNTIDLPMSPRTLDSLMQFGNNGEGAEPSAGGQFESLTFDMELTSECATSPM

On to `CC(=O)N1CC[C@H]2CC[C@@H](C(=O)N[C@@H](CCC(N)=O)C(=O)N[C@@H](Cc3ccc(C(C)(C)C)cc3)C(=O)N3CCC(CCC#Cc4cccc5c4CN(C4CCC(=O)NC4=O)C5=O)CC3)N2C(=O)[C@@H](NC(=O)c2cc3cc(C(F)(F)P(=O)(O)O)ccc3s2)C1` (stereo partly drawn) [Cpd. No. 363, ((2-(((5S,8S,10aR)-3-acetyl-8-(((2S)-5-amino-1-(((2S)-3-(4-(tert-butyl)phenyl)-1-(4-(4-(2-(2,6-dioxopiperidin-3-yl)-1-oxoisoindolin-4-yl)but-3-yn-1-yl)piperidin-1-yl)-1-oxopropan-2-yl)amino)-1,5-dioxopentan-2-yl)carbamoyl)-6-oxodecahydropyrrolo [1,2-a][1,5]diazocin-5-yl)carbamoyl)benzo[b]thiophen-5-yl)difluoromethyl)phosphonic acid], for which the 50% degradation concentration (DC50) at STAT1 and at STAT3 was under 250 nM each time.
For the compound `CC(C)N1CC[C@H]2CC[C@@H](C(=O)N[C@@H](CCC(N)=O)C(=O)N[C@@H](Cc3ccc(C(C)(C)C)cc3)C(=O)N3CCC(CCC#Cc4cccc5c4CN(C4CCC(=O)NC4=O)C5=O)CC3)N2C(=O)[C@@H](NC(=O)c2cc3cc(C(F)(F)P(=O)(O)O)ccc3s2)C1` (stereo partly drawn) [Cpd. No. 364, ((2-(((5S,8S,10aR)-8-(((2S)-5-amino-1-(((2S)-3-(4-(tert-butyl)phenyl)-1-(4-(4-(2-(2,6-dioxopiperidin-3-yl)-1-oxoisoindolin-4-yl)but-3-yn-1-yl)piperidin-1-yl)-1-oxopropan-2-yl)amino)-1,5-dioxopentan-2-yl)carbamoyl)-3-isopropyl-6-oxodecahydropyrrolo[1,2-a][1,5]diazocin-5-yl)carbamoyl)benzo[b]thiophen-5-yl)difluoromethyl) phosphonic acid], the DC50 at STAT1 and at STAT3 was under 250 nM in each case.
As for `CCN1CC[C@H]2CC[C@@H](C(=O)N[C@@H](CCC(N)=O)C(=O)N[C@@H](Cc3ccc(C(=O)N4CCC(F)(F)CC4)cc3)C(=O)N3CCC(CCC#Cc4cccc5c4CN(C4CCC(=O)NC4=O)C5=O)CC3)N2C(=O)[C@@H](NC(=O)c2cc3cc(C(F)(F)P(=O)(O)O)ccc3s2)C1` (stereo partly drawn) [Cpd. No. 365, ((2-(((5S,8S,10aR)-8-(((2S)-5-amino-1-(((2S)-3-(4-(4,4-difluoropiperidine-1-carbonyl)phenyl)-1-(4-(4-(2-(2,6-dioxopiperidin-3-yl)-1-oxoisoindolin-4-yl)but-3-yn-1-yl)piperidin-1-yl)-1-oxopropan-2-yl)amino)-1,5-dioxopentan-2-yl)carbamoyl)-3-ethyl-6-oxodecahydropyrrolo[1,2-a][1,5]diazocin-5-yl)carbamoyl)benzo[b]thiophen-5-yl)difluoromethyl) phosphonic acid], the DC50 at STAT1 and on STAT3 was under 250 nM each time.
`CCN1CC[C@H]2CC[C@@H](C(=O)N[C@@H](CCC(N)=O)C(=O)N[C@@H](Cc3ccc(C(=O)N4CCOCC4)cc3)C(=O)N3CCC(CCC#Cc4cccc5c4CN(C4CCC(=O)NC4=O)C5=O)CC3)N2C(=O)[C@@H](NC(=O)c2cc3cc(C(F)(F)P(=O)(O)O)ccc3s2)C1` (stereo partly drawn) [Cpd. No. 366, ((2-(((5S,8S,10aR)-8-(((2S)-5-amino-1-(((2S)-1-(4-(4-(2-(2,6-dioxopiperidin-3-yl)-1-oxoisoindolin-4-yl)but-3-yn-1-yl)piperidin-1-yl)-3-(4-(morpholine-4-carbonyl)phenyl)-1-oxopropan-2-yl)amino)-1,5-dioxopentan-2-yl)carbamoyl)-3-ethyl-6-oxodecahydropyrrolo[1,2-a][1,5]diazocin-5-yl)carbamoyl)benzo[b]thiophen-5-yl)difluoromethyl) phosphonic acid]: the DC50 at STAT1 and at STAT3 was under 250 nM throughout.
Turning to `CCN1CC[C@H]2CC[C@@H](C(=O)N[C@@H](CCC(N)=O)C(=O)N[C@@H](Cc3ccc(C(=O)NC4CCCCC4)cc3)C(=O)N3CCC(CCC#Cc4cccc5c4CN(C4CCC(=O)NC4=O)C5=O)CC3)N2C(=O)[C@@H](NC(=O)c2cc3cc(C(F)(F)P(=O)(O)O)ccc3s2)C1` (stereo partly drawn) [Cpd. No. 367, ((2-(((5S,8S,10aR)-8-(((2S)-5-amino-1-(((2S)-3-(4-(cyclohexylcarbamoyl)phenyl)-1-(4-(4-(2-(2,6-dioxopiperidin-3-yl)-1-oxoisoindolin-4-yl)but-3-yn-1-yl)piperidin-1-yl)-1-oxopropan-2-yl)amino)-1,5-dioxopentan-2-yl)carbamoyl)-3-ethyl-6-oxodecahydropyrrolo[1,2-a][1,5]diazocin-5-yl)carbamoyl)benzo[b]thiophen-5-yl)difluoromethyl) phosphonic acid], the DC50 at STAT1 and on STAT3 was under 1000 nM throughout.
`CCN1CC[C@H]2CC[C@@H](C(=O)N[C@@H](CCNC(N)=O)C(=O)N[C@@H](Cc3ccc(C(C)(C)C)cc3)C(=O)N3CCC(CCC#Cc4cccc5c4CN(C4CCC(=O)NC4=O)C5=O)CC3)N2C(=O)[C@@H](NC(=O)c2cc3cc(C(F)(F)P(=O)(O)O)ccc3s2)C1` (stereo partly drawn) [compound 355, ((2-(((5S,8S,10aR)-8-(((2S)-1-(((2S)-3-(4-(tert-butyl)phenyl)-1-(4-(4-(2-(2,6-dioxopiperidin-3-yl)-1-oxoisoindolin-4-yl)but-3-yn-1-yl)piperidin-1-yl)-1-oxopropan-2-yl)amino)-1-oxo-4-ureidobutan-2-yl)carbamoyl)-3-ethyl-6-oxodecahydropyrrolo[1,2-a][1,5]diazocin-5-yl)carbamoyl)benzo[b]thiophen-5-yl)difluoromethyl)phosphonic acid]: the DC50 on STAT1 and on STAT3 was over 1000 nM throughout.
In the case of `CCN1CC[C@H]2CC[C@@H](C(=O)N[C@@H](CNC(N)=O)C(=O)N[C@@H](Cc3ccc(C(C)(C)C)cc3)C(=O)N3CCC(CCC#Cc4cccc5c4CN(C4CCC(=O)NC4=O)C5=O)CC3)N2C(=O)[C@@H](NC(=O)c2cc3cc(C(F)(F)P(=O)(O)O)ccc3s2)C1` (stereo partly drawn) [compound 356, ((2-(((5S,8S,10aR)-8-(((2S)-1-(((2S)-3-(4-(tert-butyl)phenyl)-1-(4-(4-(2-(2,6-dioxopiperidin-3-yl)-1-oxoisoindolin-4-yl)but-3-yn-1-yl)piperidin-1-yl)-1-oxopropan-2-yl)amino)-1-oxo-3-ureidopropan-2-yl)carbamoyl)-3-ethyl-6-oxodecahydropyrrolo[1,2-a][1,5]diazocin-5-yl)carbamoyl)benzo[b]thiophen-5-yl)difluoromethyl)phosphonic acid], the figures for the DC50 on STAT1 and on STAT3 were over 1000 nM and under 250 nM, respectively.
